Assay results reported in the Kinase Knowledgebase extract (Sharma et al. 2016).

target: MAPK14 (UniProt Q16539); test: Inhibition of MAPK14 Kinase Activity
Sequence (Q16539 whole entry, looked up): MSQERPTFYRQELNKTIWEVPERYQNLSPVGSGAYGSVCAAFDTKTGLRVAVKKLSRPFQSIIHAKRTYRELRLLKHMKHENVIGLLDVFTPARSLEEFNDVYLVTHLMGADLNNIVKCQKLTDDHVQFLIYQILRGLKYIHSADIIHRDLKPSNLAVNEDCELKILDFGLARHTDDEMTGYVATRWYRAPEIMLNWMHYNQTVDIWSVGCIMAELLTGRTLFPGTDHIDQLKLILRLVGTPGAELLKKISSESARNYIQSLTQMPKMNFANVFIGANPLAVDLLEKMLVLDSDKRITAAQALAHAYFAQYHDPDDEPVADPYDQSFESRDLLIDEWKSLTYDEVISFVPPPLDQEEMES

| Structure (SMILES) | IC50 [µM] |
| --- | --- |
| Cc1c(F)cc(C(=O)NC2CC2)cc1-c1ccc(C(=O)NCc2ccc(F)c(Cl)c2)cn1 | < 10 |
| Cc1ccc(CNC(=O)c2ccc(-c3cc(C(=O)NC4CC4)cc(F)c3C)nc2)c(F)c1F | < 10 |
| CCCNC(=O)c1ccc(-c2cc(C(=O)NC3CC3)cc(F)c2C)nc1 | < 10 |
| Cc1c(F)cc(C(=O)NC2CC2)cc1-c1ccc(C(=O)N2CCCC(C)C2)cn1 (centres undefined) | < 10 |
| Cc1c(F)cc(C(=O)NC2CC2)cc1-c1ccc(C(=O)NCC2CCCC2)cn1 | < 10 |
| Cc1ccc(C(=O)Nc2nccs2)cc1-c1ccc(C(=O)Nc2ccccc2CN2CCN(C)CC2)cn1 | < 10 |
| COc1ccc(NC(=O)c2ccc(-c3cc(NC(=O)c4ccoc4)ccc3C)nc2)cc1 | < 10 |
| Cc1c(F)cc(C(=O)NC2CC2)cc1-c1ccc(C(=O)N2CCCCC2C)cn1 (centres undefined) | < 10 |
| Cc1ccc(C(=O)Nc2nncs2)cc1-c1ccc(C(=O)Nc2ccccc2CN2CCN(C)CC2)cn1 | < 10 |
| Cc1ccc(CNC(=O)c2ccc(-c3cc(C(=O)NC4CC4)cc(F)c3C)nc2)cc1F | < 10 |
| Cc1c(F)cc(C(=O)NC2CC2)cc1-c1ccc(C(=O)NCc2ccc(F)cc2F)cn1 | < 10 |
| Cc1c(F)cc(C(=O)NC2CC2)cc1-c1ccc(C(=O)N(C)CCC2CCCC2)cn1 | < 10 |
| COc1cccc(CNC(=O)c2ccc(-c3cc(C(=O)Nc4nccs4)ccc3C)nc2)c1 | < 10 |
| Cc1c(F)cc(C(=O)NC2CC2)cc1-c1ccc(C(=O)NCCC(C)C)cn1 | < 10 |
| CCC1(CC)CN(C(=O)c2ccc(-c3cc(C(=O)NC4CC4)cc(F)c3C)nc2)C1 | < 10 |
| Cc1ccc(F)cc1CNC(=O)c1ccc(-c2cc(C(=O)NC3CC3)cc(F)c2C)nc1 | < 10 |
| COc1ccc(NC(=O)c2ccc(-c3cc(C(=O)Nc4nccs4)ccc3C)nc2)cc1 | < 10 |
| Cc1c(F)cc(C(=O)NC2CC2)cc1-c1ccc(C(=O)NCc2ccccc2F)cn1 | < 10 |

More lines, now with the values ahead:

| IC50 [µM] | Structure (SMILES) |
| --- | --- |
| < 10 | Cc1ccc(NC(=O)c2ccc(-c3cc(C(=O)NC4CC4)cc(F)c3C)nc2)cc1 |
| < 10 | C/C=C/C(C)(C)NC(=O)c1ccc(-c2cc(C(=O)NC3CC3)cc(F)c2C)nc1 |
| < 10 | Cc1ccc(CNC(=O)c2ccc(-c3cc(C(=O)NC4CC4)cc(F)c3C)nc2)o1 |
| < 10 | COc1ccc(NC(=O)c2ccc(-c3cc(C(=O)Nc4nncs4)ccc3C)nc2)cc1 |
| < 10 | Cc1c(F)cc(C(=O)NC2CC2)cc1-c1ccc(C(=O)NC2CCC2)cn1 |
| < 10 | Cc1c(F)cc(C(=O)NC2CC2)cc1-c1ccc(C(=O)NCc2cccc(Cl)c2)cn1 |
| < 10 | Cc1ccccc1CNC(=O)c1ccc(-c2cc(C(=O)NC3CC3)cc(F)c2C)nc1 |
| < 10 | COc1cccc(CNC(=O)c2ccc(-c3cc(C(=O)Nc4nncs4)ccc3C)nc2)c1 |
| < 10 | Cc1ccc(CNC(=O)c2ccc(-c3cc(C(=O)NC4CC4)cc(F)c3C)nc2)cc1 |
| < 10 | Cc1c(F)cc(C(=O)NC2CC2)cc1-c1ccc(C(=O)N2CCC(C)CC2)cn1 |
| < 10 | Cc1c(F)cc(C(=O)NC2CC2)cc1-c1ccc(C(=O)NCc2cc(F)ccc2F)cn1 |
| < 10 | CCC1CCCN(C(=O)c2ccc(-c3cc(C(=O)NC4CC4)cc(F)c3C)nc2)C1 (centres undefined) |
| < 10 | Cc1c(F)cc(C(=O)NC2CC2)cc1-c1ccc(C(=O)NCc2ccccc2)cn1 |
| < 10 | CCCC(C)(C)NC(=O)c1ccc(-c2cc(C(=O)NC3CC3)cc(F)c2C)nc1 |
| < 10 | Cc1c(F)cc(C(=O)NC2CC2)cc1-c1ccc(C(=O)NCc2ccccc2C(F)(F)F)cn1 |
| < 10 | Cc1c(F)cc(C(=O)NC2CC2)cc1-c1ccc(C(=O)NCc2cc(F)cc(F)c2F)cn1 |
| < 10 | Cc1c(F)cc(C(=O)NC2CC2)cc1-c1ccc(C(=O)N2CCC(C)CC2C)cn1 (centres undefined) |
| < 10 | CCN(C(=O)c1ccc(-c2cc(C(=O)NC3CC3)cc(F)c2C)nc1)C1CCCCC1 |
| < 10 | COc1cccc(CNC(=O)c2ccc(-c3cc(NC(=O)c4ccoc4)ccc3C)nc2)c1 |
| < 10 | Cc1ccc(NC(=O)c2ccsc2)cc1-c1ccc(C(=O)Nc2ccccc2CN2CCN(C)CC2)cn1 |
| < 10 | CC(C)=CCNC(=O)c1ccc(-c2cc(C(=O)NC3CC3)cc(F)c2C)nc1 |
